In patent US7649013B2, “Methods of protecting against radiation injury” (priority 2003, dated 2010):

Test system: C57BL/6J inbred strain female mice
Test: Survival after 8 Gy whole body γ-irradiation, intraperitoneal dosing 4 hours before or after (Example 4)
Format: in vivo
Details: 10 mg/kg 4 hr before Radiation 8 Gy
Protocol: β-lapachone is prepared at 10 mg/ml in 40% hydroxypropyl-beta-cyclodextrin (HPBCD).
C57BL/6J inbred strain female mice (4-5 weeks old) are used. Animals are maintained in a climate-controlled animal facility.
Animals are injected with different concentrations of β-lapachone (20 and 40 mg/kg body weight) intraperitoneally 4 hours before or after irradiation.
Whole body irradiation of animals with 8 Gy of γ-rays is carried out in air at room temperature in a gamma chamber (Gammacell 40 Exactor), at a dose-rate of 1.05 Gy/min. This radiation dose is within the range of equivalent human exposures predicted in many scenarios of radiologic or nuclear terrorist attack.
Mice are divided into the following groups (each Group comprises four mice receiving identical treatment):
Group II: Mice are injected with β-lapachone 20 mg/kg body weight 4 hours before radiation.
Group III: Mice are injected with β-lapachone 40 mg/kg body weight 4 hours before radiation.
Group IV: Mice are injected with β-lapachone 20 mg/kg body weight 4 hours after radiation.
Group V: Mice are injected with β-lapachone 40 mg/kg body weight 4 hours after radiation.
Group VI: Mice are injected with amifostine 10 mg/kg body weight 4 hours before radiation.
Animals are irradiated with 8 Gy at 1.05 Gy/min dose-rate. After irradiation mice are returned to their cage and observed on a regular basis. Exposure to γ-rays causes lethality in animals. Importantly, treatment with β-lapachone, especially at a level of 40 mg/kg prior to irradiation, diminishes the death rate.

With `NCCCNCCSP(=O)(O)O` [Amifostine, reference compound] the “Median survival time” value was 12 days, the “No. of animals surviving at 20 days post-irradiation” value (4 animals) was 0 and the “Death rate (%)” value (20 days) was 100%. For the same compound, the “Median survival time in days” value (listed as amifostine) was “little or no effect”.
